Reference: paper PMC4104029, “Mechanism of Action of Compound-13: An α1-Selective Small Molecule Activator of AMPK” (Chemistry & Biology, 2014)

Target: T1, AMPK α2/α1 LOOP β1γ1 (Homo sapiens, UniProt P54619+P54646, A386E/A396G/C382H/D376E/DEL348-348/DEL355-359/G349D/G362L/I374V/K364R/K379R/L363T/L395Q/M352L/M370V/P360H/P361H/P372F/P383T/P392S/S377T/S394H/T389P/T390Q)
T1 construct: 6×His (N); made in house; host or cells: E. coli (tricistronic pET15-b construct)
Assay: Chimeric AMPK complex activation assay
Assay type: biochemical
Settings: complex expressed in E. coli; read-out: EC50, allosteric activation
Text: Figure 3 Regulatory Elements within the α-Linker Determine the Isoform Specificity of C2 (A) Diagram illustrating the domain organization of the AMPKα subunit with a global pairwise alignment of a section of the α-linker of human AMPKα1 (Q13131) and AMPKα2 (P54646). Regulatory elements in the α-linker are highlighted, including the α-hook as originally defined by [Xiao et al. (2011)] (pink) and the reassigned sequence (also known as α-RIM2) shaded in orange. The secondary structure for α1 is derived from PDB ID 2Y94. The table summarizes the sequences of the α1/α2 chimeras produced to examine the role of various structural elements in the activation of α2β1γ1 complexes by C2. (B–E) Human AMPKα1/α2 chimeras (defined in A) were generated as complexes with β1γ1 in E. coli. Purified active complexes were assayed for the activation of phosphotransferase activity by AMP and C2, as described in Figure 1. Results (line graphs) are expressed as the fold increase in activity relative to reactions performed in the absence of compound and represent the mean ± SD of three independent experiments. Complexes were also assayed for protection against dephosphorylation and inactivation by PP2Cα, as described in Figures 2C and 2D. Results (bar charts) are expressed as the mean (percentage of control) ± SD of three independent experiments. Representative blots of pT172 and total AMPKα are shown below the bar charts. TEXT PRINTED IN THE PICTURE: (B) C2: AMPK211 - α2/α1 CAT: EC50: ND | (B) AMP: AMPK211 - α2/α1 CAT: EC50: 1.3 ± 0.2 μM | (C) C2: AMPK211 - α2/α1 REG: EC50: 0.009 ± 0.0006 μM | (C) AMP: AMPK211 - α2/α1 REG: EC50: 3.1 ± 0.3 μM | (D) C2: AMPK211 - α2/α1 HOOK: EC50: ND | (D) AMP: AMPK211 - α2/α1 HOOK: EC50: 1.4 ± 0.2 μM | (E) C2: AMPK211 + α2/α1 LOOP: EC50: 0.013 ± 0.001 μM | (E) AMP: AMPK211 + α2/α1 LOOP: EC50: 2.7 ± 0.3 μM […]
AMPK phosphotransferase activity was assayed in reactions (50 μl) containing 50 mM HEPES, pH 7.4, 10 mM MgCl2, 0.1 mM EGTA, 1 mM DTT, 0.01% BRIJ-35, 100 μM [γ-^32P]ATP (∼250 CPM⋅pmol^−1) and 200 μM AMARA (AMARAASAAALARRR). Reactions were started by the addition of AMPK (5 mU), incubated for 20 min at 30°C and quenched by spotting onto P81 and immersion in 75 mM H3PO4. Washed filters were dried and [^32P] incorporation determined by Cherenkov counting. AMPK activity in cell extracts was determined by immunoprecipitation with AMPKα1 or AMPKα2 antibodies from 50 μg material, as previously described ([Hunter et al., 2011]). […]

T1 sequence (Q9Y478 2-270, stated change not applied): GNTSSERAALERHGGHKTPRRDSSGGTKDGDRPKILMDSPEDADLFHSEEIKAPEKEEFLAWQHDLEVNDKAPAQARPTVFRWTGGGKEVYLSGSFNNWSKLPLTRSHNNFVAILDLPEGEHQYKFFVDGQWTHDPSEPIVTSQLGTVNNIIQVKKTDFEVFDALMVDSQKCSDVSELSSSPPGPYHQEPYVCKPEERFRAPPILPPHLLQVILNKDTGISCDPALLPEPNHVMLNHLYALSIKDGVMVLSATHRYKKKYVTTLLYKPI
T1 sequence (P54646 other isoform, or with tags, fused parts or gaps with the stated changes): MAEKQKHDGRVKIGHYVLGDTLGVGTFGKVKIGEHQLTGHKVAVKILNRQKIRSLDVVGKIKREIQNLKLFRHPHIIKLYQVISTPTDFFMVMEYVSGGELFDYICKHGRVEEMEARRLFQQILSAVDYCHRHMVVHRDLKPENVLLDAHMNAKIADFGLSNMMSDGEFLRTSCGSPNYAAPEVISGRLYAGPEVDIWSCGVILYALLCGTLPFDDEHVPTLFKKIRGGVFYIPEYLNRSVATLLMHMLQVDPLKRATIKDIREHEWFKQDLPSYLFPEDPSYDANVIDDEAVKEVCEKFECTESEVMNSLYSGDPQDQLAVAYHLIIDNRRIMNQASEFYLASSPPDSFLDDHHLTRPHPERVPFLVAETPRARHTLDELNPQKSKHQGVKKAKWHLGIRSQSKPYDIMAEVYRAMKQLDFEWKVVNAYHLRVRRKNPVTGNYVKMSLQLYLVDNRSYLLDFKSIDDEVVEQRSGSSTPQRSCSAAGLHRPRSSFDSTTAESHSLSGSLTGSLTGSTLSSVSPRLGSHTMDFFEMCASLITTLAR
T1 sequence (P54619 whole entry, stated change not applied): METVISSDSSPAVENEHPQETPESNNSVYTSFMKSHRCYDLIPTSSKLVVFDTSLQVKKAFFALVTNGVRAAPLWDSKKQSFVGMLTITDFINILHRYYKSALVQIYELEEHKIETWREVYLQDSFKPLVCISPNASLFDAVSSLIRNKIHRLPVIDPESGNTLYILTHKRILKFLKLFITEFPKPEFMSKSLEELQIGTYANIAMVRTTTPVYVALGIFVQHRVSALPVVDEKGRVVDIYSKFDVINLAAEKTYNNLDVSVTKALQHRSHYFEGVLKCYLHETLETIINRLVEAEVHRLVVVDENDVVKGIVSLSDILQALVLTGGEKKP

Row | Structure (SMILES) | EC50 [µM]
1 | Nc1ncnc2c1ncn2[C@@H]1O[C@H](COP(=O)(O)O)[C@@H](O)[C@H]1O [AMP, reference compound] | 2.7 ± 0.3
2 | O=P(O)(O)c1ccc(-c2cc(O)on2)o1 [Compound C2, 5-(5-hydroxyl-isoxazol-3-yl)-furan-2-phosphonic acid] | 0.013 ± 0.001
